Data from PMC4920673, “Nitroimidazole carboxamides as antiparasitic agents targeting Giardia lamblia, Entamoeba histolytica and Trichomonas vaginalis” (European Journal of Medicinal Chemistry, 2016).
Values after ≈ are worked out from the molar mass of the structure shown. Where two headings read alike, the source gives them in different places.

Columns and labels:
[1] = tested on: G. lamblia WB (MtzS); experiment: ATP-bioluminescence growth/survival EC50 assay, G. lamblia WB; details: for EC50: Giardia duodenalis; for S.I (CC50/EC50): average cytotoxicity against HEK293 and HepG2 / G. lamblia WB activity
Procedure: (§1) Compounds were screened for antiparasitic activity using an ATP-bioluminescence based assay for cell growth and survival, [24]. […] Viable cell numbers were determined in triplicate using the CellTiter-Glo Luminescent Cell Viability Assay.

[2] = Resazurin cytotoxicity assay, HEK293; assay type: cell-based, Human; details: human, 24 h, highest concentration 100 μM, n = 3, read-out: CC50 HEK 293
Procedure: (§2) Human HEK293 and HepG2 cells were seeded at 3000 and 5000 cells per well in 384-well plates, respectively. Cells were cultured in Dulbecco's modified Eagle's medium with 10% FBS for 24 h at 37 °C, 5% CO2. A dilution series of compounds was added, with the highest concentration of 100 μM. […] After 24 h incubation with the compounds, 5 μM resazurin was added into each well and incubated at 37 °C for 2 h. As a negative control, 1% Triton X-100 was added into the culture media to lyse all of the cells. The fluorescence intensity was read using Polarstar Omega with excitation/emission 560/590 nm. Data were analysed with GraphPad Prism 6 software (La Jolla, California USA) to calculate CC50 values.

[3] = tested on: C. difficile 630 (ATCC BAA-1382); experiment: Broth microdilution MIC assay, C. difficile 630; assay type: cell-based, Clostridium difficile; details: Clostridioides difficile, ATCCBAA1382
Procedure: Clostridium difficile strains (630, ATCC BAA-1382 and NAP1/027, ATCC BAA-1803) were maintained as previously described. The minimum inhibition concentration (MIC) was determined according to the CLSI Methods with modifications in broth and inoculum for C. difficile, [25], [26]. Briefly, compounds and control antibiotics were serially diluted two-fold in 96-well plates (Non-binding surface, Corning). […] C. difficile bacteria from BHIS(TA) agar plates were cultured anaerobically in BHIS at 37 °C overnight. […] An antibiotic standard, a positive growth control (no compound) and a sterility control (no bacteria) were included on each 96 well plate. Plates were covered and incubated at 37 °C for 24 h. MICs for each strain were determined as the lowest concentration without visible growth. […] Median MICs are reported with a range given when the median MIC was between two tested concentrations.

[4] = Resazurin cytotoxicity assay, HepG2; assay type: cell-based, Human; details: human, 24 h, highest concentration 100 μM, n = 3, read-out: CC50 Hep G2
Procedure: as §2

[5] = tested on: E. histolytica HM1:IMSS; experiment: ATP-bioluminescence growth/survival EC50 assay, E. histolytica; assay type: cell-based, Entamoeba histolytica; details: Entamoeba histolytica
Procedure: as §1

[6] = tested on: T. vaginalis F1623; experiment: ATP-bioluminescence growth/survival EC50 assay, T. vaginalis; assay type: cell-based, Trichomonas vaginalis; details: Trichomonas vaginalis
Procedure: as §1

[7] = tested on: C. difficile NAP1/027 (ATCC BAA-1803); experiment: Broth microdilution MIC assay, C. difficile NAP1/027; assay type: cell-based, Clostridium difficile; details: Clostridioides difficile, ATCCBAA1803; strain NAP1/027
Procedure: Clostridium difficile strains (630, ATCC BAA-1382 and NAP1/027, ATCC BAA-1803) were maintained as previously described. The minimum inhibition concentration (MIC) was determined according to the CLSI Methods with modifications in broth and inoculum for C. difficile, [25], [26]. Briefly, compounds and control antibiotics were serially diluted two-fold in 96-well plates (Non-binding surface, Corning). The plates were placed in a Coy anaerobic chamber (5% H2, 10% CO2, 85% N2) overnight to reduce the medium. C. difficile bacteria from BHIS(TA) agar plates were cultured anaerobically in BHIS at 37 °C overnight. […]. Compound concentration ranged from 64 to 0.03 μg/mL. An antibiotic standard, a positive growth control (no compound) and a sterility control (no bacteria) were included on each 96 well plate. Plates were covered and incubated at 37 °C for 24 h. MICs for each strain were determined as the lowest concentration without visible growth. Variance between replicates was typically within one 2-fold dilution. Median MICs are reported with a range given when the median MIC was between two tested concentrations.

[8] = tested on: G. lamblia 713M3 (MtzR); experiment: ATP-bioluminescence growth/survival EC50 assay, G. lamblia 713M3; assay type: cell-based, Giardia lamblia; details: Giardia duodenalis
Procedure: as §1

[9] = read-out: EC50 G. lamblia WB, MtzS strain WB, minimum n = 3
[10] = read-out: pEC50 ± SE G. lamblia WB, MtzS strain WB (converted)
[11] = strain 630, MtzS, median of n = 4, read-out: MIC C. difficile 630
[12] = read-out: EC50 E. histolytica HM1:IMSS
[13] = read-out: pEC50 ± SE E. histolytica HM1:IMSS (converted)
[14] = read-out: EC50 T. vaginalis F1623, MtzS, minimum n = 3
[15] = read-out: pEC50 ± SE T. vaginalis F1623, MtzS (converted)
[16] = read-out: EC50 G. lamblia 713M3, MtzR strain 713M3, minimum n = 3
[17] = read-out: pEC50 ± SE G. lamblia 713M3, MtzR strain 713M3 (converted)
[18] = 630 and NAP1/027 strains together or strain not given, read-out: MIC C. difficile

Row | Compound | EC50 [1, 9] [µM] | EC50 [1, 10] [µM] | CC50 at 24 h [2] [µM] | MIC [3, 11] [µg/mL] | CC50 at 24 h [4] [µM] | EC50 [5, 12] [µM] | EC50 [5, 13] [µM] | EC50 [6, 14] [µM] | EC50 [6, 15] [µM] | MIC [7] [µg/mL] | EC50 [8, 16] [µM] | EC50 [8, 17] [µM] | S.I (CC50/EC50) [1] | CC50 at 24 h ([2]; HEK293 cells) [µM] | CC50 at 24 h ([4]; HepG2 cells) [µM] | MIC [3, 18] [µg/mL]
1 | NC(=O)c1nc([N+](=O)[O-])cn1Cc1ccc(F)cc1 [Compound 13a, 1-(4-fluorobenzyl)-4-nitro-1H-imidazole-2-carboxamide] | > 50 | > 50.1 | > 100 | > 64 | > 100 | > 50 | > 50.1 | – | – | – | – | – | – | – | – | –
2 | NC(=O)c1ncc([N+](=O)[O-])[nH]1 [Compound 12l, 5-nitro-1H-imidazole-2-carboxamide] | > 50 | > 50.1 | > 100 | 1 (≈ 6.41 µM) | > 100 | 13 | 13.2 | > 20 | > 20 | 1 to 2 (≈ 6.41 to 12.8 µM) | > 20 | > 20 | – | – | – | –
3 | Cn1c([N+](=O)[O-])cnc1C(=O)N1CCCC1 [Compound 8i, (1-methyl-5-nitro-1H-imidazol-2-yl)(pyrrolidin-1-yl)methanone] | 2.9 | 2.88 | – | 64 (≈ 285 µM) | – | 22 | 21.9 | 1.7 | 1.74 | 64 (≈ 285 µM) | 4 | 3.98 | >34 | > 100 | > 100 | –
4 | CC(NC(=O)c1ncc([N+](=O)[O-])n1C)c1ccc(F)cc1 (stereo not drawn) [Compound 8d, N-(1-(4-fluorophenyl)ethyl)-1-methyl-5-nitro-1H-imidazole-2-carboxamide] | 2.9 | 2.88 | – | 64 (≈ 219 µM) | – | 10 | 10 | 3.8 | 3.8 | > 64 | 1.9 | 1.86 | >34 | > 100 | > 100 | –
5 | CN(CCO)C(=O)c1ncc([N+](=O)[O-])[nH]1 [Compound 12o, N-(2-hydroxyethyl)-N-methyl-5-nitro-1H-imidazole-2-carboxamide] | 24 | 24 | – | 2 (≈ 9.34 µM) | – | > 50 | > 50.1 | > 20 | > 20 | 4 (≈ 18.7 µM) | > 20 | > 20 | >4 | > 100 | > 100 | 0.5 to 2 (≈ 2.33 to 9.34 µM)
6 | CN(C)C(=O)c1nc([N+](=O)[O-])cn1Cc1ccc(OC(F)(F)F)cc1 [Compound 14b, N,N-dimethyl-4-nitro-1-(4-(trifluoromethoxy)benzyl)-1H-imidazole-2-carboxamide] | 2.7 | 2.69 | > 100 | 64 (≈ 179 µM) | > 100 | 19 | 19.1 | – | – | 64 (≈ 179 µM) | – | – | >37 | – | – | –
7 | O=C(NCCO)c1ncc([N+](=O)[O-])[nH]1 [Compound 12n, N-(2-hydroxyethyl)-5-nitro-1H-imidazole-2-carboxamide] | > 50 | > 50.1 | – | 8 (≈ 40 µM) | – | > 50 | > 50.1 | > 20 | > 20 | 8 to 16 (≈ 40 to 79.9 µM) | > 20 | > 20 | – | > 100 | > 100 | 8 to 16 (≈ 40 to 79.9 µM)
8 | NNC(=O)c1nc([N+](=O)[O-])cn1Cc1ccc(OC(F)(F)F)cc1 [Compound 14e, 4-nitro-1-(4-(trifluoromethoxy)benzyl)-1H-imidazole-2-carbohydrazide] | 7.5 | 7.59 | > 100 | > 64 | > 100 | 45 | 44.7 | – | – | > 64 | – | – | >13 | – | – | –
